Test results: patent publication US20200222462A1, “METHODS OF TREATMENT USING DECITABINE AND A CD123-TARGETED THERAPY” (priority 2018, published 2020)

Experiments:
[1] = test system: AML cell lines Kasumi-1, SKM-1 and MOLM-13; assay: Live cell counts by flow cytometry (DAPI exclusion), AML cell lines; assay type: cell-based; settings: for cell numbers (dose dependent decline): day 3, 0.46-3000 nM dosed at 0, 24 and 48 hours
Experimental: (§1) Number of live cells was determined by excluding DAPI+ dead cells in each well. Average of triplicates is presented on the graph.
(§2) SKM1, Kasumi-1 and MOLM-13 cell lines were maintained in 80% RPMI 1640+20% FBS according to manufacturer's instructions. Logarithmically growing SKM1, Kasumi-1 and MOLM-13 cell lines were plated at 7,500 cells per well in 384 well microtiter plates and treated with drugs in triplicate using an acoustic liquid handler using protocol (P.SOP.007.02_Compound Addition Using GBG).
(§3) The following compounds were serially dosed in 24-hour intervals using an acoustic liquid handler. Decitabine, 5-azacytidine and guadecitabine were dosed at 3000, 1000, 333.33, 111.11, 37.04, 12.35, 4.12, 1.37 and 0.46 nM at 0, 24 and 48 hours. In addition, guadecitabine was dosed at 3000, 1000, 333.33, 111.11, 37.04, 12.35, 4.12, 1.37 and 0.46 nM at 0 hours without serial dosing (single dose). The dose range of the compounds was determined by back calculating the clinical dose and corresponding to a plasma concentration at 1.5 hours after standard dosing. The 1000 nM concentration of decitabine is based on the clinical dose of 20 mg/m^2, 1-hour intravenous infusion, one time per day for five consecutive days every 4 weeks and the maximum plasma concentration after standard dosing (1.15 micromolar). Decitabine doses in the study were selected above and below this dose. The 1000 nM concentration of 5-azacytidine is based on the clinical dose of 75 mg/m^2/day for 7 days every 28 days and the plasma concentration at 1.5 hours after standard dosing. 5-Azacytidine doses in the study were selected above and below this dose. Guadecitabine regimen is 60 mg/m^2 given subcutaneously daily on Days 1-5 in 28-day cycles (delayed as needed to allow blood count recovery). The clinically relevant guadecitabine dose is 211 nM. Cells were stained at day 0, day 3 and day 7 following cell plating samples were stained with the antibody panel details below and readout with an lntellicyt iQue Plus flow cytometer.
(§4) Cells were stained using Notable labs no wash protocol number (P.SOP.009.01_Screen Readout Automated), briefly, antibodies are added to cells with an acoustic liquid handler, incubated at 4° C. for 20 minutes and readout with an Intellicyt iQue Plus flow cytometer. Staining Panel for Cell lines: DAPI, CD123, PDL1, CD34, CD33, CD15, CD38. Live cells were gated using FSC/SSC and DAPI exclusion using FlowJo analysis software (BeckmanFLow), and then further defined by cell surface marker expression. Absolute counts or Mean Fluorescence Intensity from triplicate wells were averaged and fold change was calculated with respect to a vehicle-only (DMSO) control.

[2] = test system: CD34+CD38+ Multipotent progenitors (MMPs) and CD34+CD38− Hematopoietic Stem Cells (HSCs); assay: Live cell counts by flow cytometry, normal donor CD34+ bone marrow cells; settings: for cell counts (dose dependent decline): primary MMPs and HSCs, 0.46-3000 nM
Experimental: as §1
CD34 enriched bone marrow was purchase from AllCells. Fresh (never frozen) cells were plated at 15,000 cells per well in 384 well microtiter plates and treated with drugs in triplicate using an acoustic liquid handler. The following compounds were dosed serial in 24-hour intervals: decitabine, guadecitabine and 5-azacytidine were dosed at 3000, 1000, 333.33, 111.11, 37.04, 12.35, 4.12, 1.37 and 0.46 nM at 0, 24 and 48 hours. In addition, auadecitabine was dosed at 3000, 1000, 333.33, 111.11, 37.04, 12.35, 4.12, 1.37 and 0.46 nM at 0 hours without serial dosing (single dose). Cells were stained at day 0 and day 7 following cell plating samples were stained with the antibody panel details below and readout with an Intellicyt iQue Plus flow cytometer. Cells were stained using Notable labs staining protocol number (P.SOP.009.01_Screen Readout Automated). Staining Panel for Healthy CD34+ Bone Marrow: DAPI, CD45, CD3, CD19, CD16, CD14, CD38, CD33, CD34, CD90, CD123, CD274. Live cells were gated using FSC/SSC and DAPI exclusion using FlowJo analysis software (Beckman Flow), and then further defined by cell surface marker expression. Absolute counts from triplicate wells were averaged and normalized to a vehicle-only (DMSO) control.

AML cells = assay: CD123 expression in AML cells quantitated by fluorescence-activated cell sorting; assay type: cell-based
SKM1 cell line = assay: CD123 MFI by flow cytometry, SKM1; assay type: cell-based; settings: for CD123 MFI (dose dependent increase): SKM1, 0.46-3000 nM, day 7; for CD123 expression at clinically relevant dose (FIG. 2c): 1000 nM
Experimental: (§5) (c) Fold change in CD123 MFI at 1000 nM clinically relevant decitabine dose (P values are calculated by student Test). Cells are gated on live cells. Blast cells in AML cell lines were defined as CD33 or CD34 positive. Primary HSCs were defined as CD45^dimSSC^lowCD34^highCD38− and multipotent progenitors were defined as CD34^highCD38+, data represents mean of four normal donors and the error bars represent Standard deviation. Fold change in CD123 Mean Fluorescence Intensity (MFI) with respect to DMSO treated cells is presented.
as §2, §3, §4

Kasumi-1 = assay: CD123 MFI by flow cytometry, Kasumi-1; assay type: cell-based; settings: 0.46-3000 nM, day 7
Experimental: as §5
(§6) SKM1, Kasumi-1 and MOLM-13 cell lines were maintained in 80% RPMI 1640+20% FBS according to manufacturer's instructions. […]
(§7) The following compounds were serially dosed in 24-hour intervals using an acoustic liquid handler. […] The dose range of the compounds was determined by back calculating the clinical dose and corresponding to a plasma concentration at 1.5 hours after standard dosing. […] Cells were stained at day 0, day 3 and day 7 following cell plating samples were stained with the antibody panel details below and readout with an lntellicyt iQue Plus flow cytometer.
(§8) Cells were stained using Notable labs no wash protocol number (P.SOP.009.01_Screen Readout Automated), briefly, antibodies are added to cells with an acoustic liquid handler, incubated at 4° C. for 20 minutes and readout with an Intellicyt iQue Plus flow cytometer. […]

MOLM-13 = assay: CD123 MFI by flow cytometry, MOLM-13; assay type: cell-based; settings: 0.46-3000 nM, day 7
Experimental: as §5, §6, §7, §8

[3] = test system: primary CD34+ Bone marrow cells; assay: CD123 MFI by flow cytometry, primary CD34+ bone marrow cells (overall); assay type: cell-based; settings: for CD123 MFI / expression in primary bone marrow cells: four normal donors, dose range
Experimental: as §5
(§9) CD34 enriched bone marrow was purchase from AllCells.

[4] = test system: PD-L1 expression in AML cell lines and primary bone marrow HSCs/MMPs; assay: PD-L1 expression by flow cytometry, AML cell lines and primary bone marrow cells; assay type: cell-based; settings: any dose; all cell lines and primary bone marrow HSCs or MMPs
From the text: Cells are gated on live cells. Blast cells in AML cell lines were defined as CD33 or CD34 positive. Primary HSCs were defined as CD45^dimSSC^lowCD34^highCD38− and multipotent progenitors were defined as CD34^highCD38+, data represents mean of four normal donors and the error bars represent Standard deviation.
as §2
as §7, with “handler. Decitabine, 5-azacytidine and guadecitabine were dosed at 3000, 1000, 333.33, 111.11, 37.04, 12.35, 4.12, 1.37 and 0.46 nM at 0, 24 and 48 hours.” for “handler.”
Cells were stained using Notable labs no wash protocol number (P.SOP.009.01_Screen Readout Automated), briefly, antibodies are added to cells with an acoustic liquid handler, incubated at 4° C. for 20 minutes and readout with an Intellicyt iQue Plus flow cytometer. […] Absolute counts or Mean Fluorescence Intensity from triplicate wells were averaged and fold change was calculated with respect to a vehicle-only (DMSO) control.
CD34 enriched bone marrow was purchase from AllCells. […] Cells were stained at day 0 and day 7 following cell plating samples were stained with the antibody panel details below and readout with an Intellicyt iQue Plus flow cytometer. Cells were stained using Notable labs staining protocol number (P.SOP.009.01_Screen Readout Automated). […]

[5] = test system: Hematopoietic stem cells (HSCs); assay: CD123 expression by flow cytometry, primary hematopoietic stem cells; assay type: cell-based; settings: for CD123 expression at clinically relevant dose (FIG. 2c): HSC; for increase in CD123 expression vs DMSO: HSCs
From the text: as §5, with “(c) Fold change in CD123 MFI at 1000 nM clinically relevant decitabine dose (P values are calculated by student Test).” left out
as §9

CD38+CD34+ MMPs = assay: CD123 expression by flow cytometry, primary multipotent progenitors; assay type: cell-based; settings: for CD123 expression at clinically relevant dose (FIG. 2c) / average increase in CD123 expression vs DMSO: MMPs
From the text: as §5, with “(c) Fold change in CD123 MFI at 1000 nM clinically relevant decitabine dose (P values are calculated by student Test).” left out
as §9

AML patients = test system: AML patients
Experimental: Fifteen AML patients treated in our ongoing first in human phase 1 clinical trial (NCT0262355) evaluating CD123CAR T cells in patients with relapsed or refractory AML or blastic plasmacytoid dendritic cell neoplasm (BPDCN) received lymphodepletion prior to CAR T cell infusion on day 0. All received fludarabine (25-30 mg/m2/day) and cyclophosphamide (300-500 mg/m2/day). Both were administered daily from days −5 to −3. Eight also received decitabine (20 mg/m2/day) given daily for 5 days from days −7 to −3 or daily for 3 days from days −5 to −3.

AML blasts = settings: in vitro; reported; cited from earlier work
[6] = clinical dose 20 mg/m^2, 1-hour intravenous infusion, once per day for five consecutive days every 4 weeks; cited from earlier work
[7] = 5 day treatment, decitabine p<0.001, azacitidine p<0.05

| Compound | CD123 expression in AML cells (AML cells; [7]) | cell numbers (dose dependent decline) [1] | cell counts (dose dependent decline) [2] | CD123 MFI (dose dependent increase) (SKM1 cell line) | CD123 MFI / expression in primary bone marrow cells [3] | PD-L1 expression [4] | CD123 expression at clinically relevant dose (FIG. 2c) (SKM1 cell line) | CD123 expression at clinically relevant dose (FIG. 2c) ([5]; 1000 nM) | CD123 expression at clinically relevant dose (FIG. 2c) (CD38+CD34+ MMPs; 1000 nM) | further results |
| --- | --- | --- | --- | --- | --- | --- | --- | --- | --- | --- |
| CN[C@@H]1C[C@H]2O[C@@](C)([C@@H]1OC)n1c3ccccc3c3c4c(c5c6ccccc6n2c5c31)C(=O)NC4 [Staurosporine] |  |  |  |  |  |  |  |  |  | viable cells ([1]; positive control for cell death, all cell line groups): significant reductions; viable cells ([2]; positive control for cell death, primary cell groups): significant reductions |
| Nc1ncn([C@@H]2O[C@H](CO)[C@@H](O)[C@H]2O)c(=O)n1 [5-azacytidine] | significant increase | dose dependent decline | dose dependent decline | did not impact | highly variable | no impact |  |  |  | CD123 MFI (dose dependent increase) (Kasumi-1): did not impact; CD123 MFI (dose dependent increase) (MOLM-13): did not impact |
| Nc1ncn([C@H]2C[C@H](OP(=O)(O)OC[C@H]3O[C@@H](n4cnc5c(=O)[nH]c(N)nc54)C[C@@H]3O)[C@@H](CO)O2)c(=O)n1 [guadecitabine] |  | dose dependent decline |  | increase in CD123 MFI in a dose dependent manner |  | no impact | significantly enhanced | significantly enhanced | significantly enhanced | change in CD123 expression ([5]; normal bone marrow HSCs, regardless of the dose): did not show any change; change in CD123 expression (CD38+CD34+ MMPs; normal bone marrow MMPs, regardless of the dose): did not show any change |
| Nc1ncn([C@H]2C[C@H](O)[C@@H](CO)O2)c(=O)n1 [decitabine] | significant increase | dose dependent decline | dose dependent decline | upregulates | upregulates | no impact | significantly enhanced | significantly enhanced | significantly enhanced | CD123 expression in AML cells (AML cells; 3 day treatment, p<0.001): significant increase; cell death at high dose ([2]; 3000 nM, FIG. 1b): cell death; CD123 MFI (dose dependent increase) (SKM1 cell line; listed as Decitabine): dose dependent increase; increase in CD123 expression vs DMSO ([5]; 111.11 nM): 1.3 fold; increase in CD123 expression vs DMSO ([5]; 333.33 nM): 1.6 fold; increase in CD123 expression vs DMSO ([5]; 1000 nM): 1.4 fold; average increase in CD123 expression vs DMSO (CD38+CD34+ MMPs; 111.11 nM): 1.4 fold; average increase in CD123 expression vs DMSO (CD38+CD34+ MMPs; 333.33 nM): 1.4 fold; average increase in CD123 expression vs DMSO (CD38+CD34+ MMPs; 1000 nM): 1.3 fold; CD123 MFI with respect to DMSO treated cells ([3]; 3000 nM, FIG. 2b): no change; CD123 MFI in primary CD34+ bone marrow cells ([3]; clinically relevant dose of 1000 nM): increase; treatment related adverse events in decitabine treated group (AML patients; 8 patients with decitabine vs 7 without): not observed increased treatment related adverse events; tolerability / dose limiting toxicities (AML patients; AML patients, fludarabine and cyclophosphamide lymphodepletion, eight also decitabine 20 mg/m2/day, CAR T infusion day 0): well tolerated; CD123 expression in AML blasts (AML blasts): upregulate; maximum plasma concentration after standard dosing [6]: 1.15 µM |
